Patent US12031897B2, “Target-locking single-molecule nanoscopy” (Memorial Sloan Kettering Cancer Center, priority 2019, dated 2024)
“Also recorded” adds a separate entry of the source.

Tests used:
[1] = system: Cdk9 foci at the Pou5f1 locus; assay: Cdk9 cluster signal at Pou5f1 upon inhibition (live-cell confocal/STED scans); type: cell-based, mouse; conditions: for Cdk9 signal at Pou5f1 upon inhibition: 1 μM JQ1 (within 1 min) or 10 μM Flavopiridol
Excerpt: If rapid Pou5f1 shut-down reflects significant Cdk9 portion being recruited through Brd4-acetylated histone recognition, both Brd4 and Cdk9 clustering would dissipate upon JQ1 inhibition. […] Cdk9/Med22 focal accumulation appears to be stabilized through highly-specific molecular recognition-multiple Brd4 molecules binding to multiple acetylated targets throughout the heavily modified Pou5f1 enhancer region—rather than possibly less-selective physicochemical forces, e.g. driven by low-complexity protein domains and RNA.
(§1) For real-time confocal and STED imaging, example implementations may program the wave generator to scan 2 μm×2 μm or 1 μm×1 μm xy areas in 0.8 sec or 0.2 sec respectively. 3D scanning was performed (via, e.g., detection system 150) by acquiring 5 xy scans while moving the stage by 0.5 μm in z between scans. TTL pulses corresponding to single-photon events from the APDs, together with the trigger pulses from the wave generator were detected using a field-programmable gate array (FPGA) data acquisition system (National Instruments, PCIe-7852R).
(§2) Before imaging, cells were seeded onto 8-chamber coverglass (LabTek, 155411) coated with 5 μg/ml laminin (BioLamina LN511), in −2i media (OMG) or +2i media (NMG) and appropriate drugs. For SiR staining, cells were labeled with media containing 0.3 μM SiR-BG for 10 mins, at 37° C., followed by three washes with new media.
(§3) To generate OMG SNAP-Cdk9 targeted cells, OMG-1 mESCs (1×106) were transfected with 10 μg SNAP-Cdk9 donor vector and 0.6 μg espCas9-gRNA-Cdk9 vector. 10 days after transfection, the cells were trypsinized, labeled with SiR-BG and subjected to FACS, generating a first-round SiR-positive pool. This pool was then expanded, stained with SiR-BG and subjected to second FACS round and individual clones were picked and expanded.

[2] = biological target: T1, Brd4 foci at the Pou5f1 locus (Mus musculus, UniProt Q9ESU6); assay: Brd4 cluster signal at Pou5f1 upon inhibition (live-cell confocal/STED scans); type: cell-based; conditions: for Brd4 signal at Pou5f1 upon inhibition: 1 μM JQ1 (within 1 min) or 10 μM Flavopiridol
T1 construct: integrating a SNAP-tag at the N-terminus of the endogenous Brd4; endogenous in cells; host or cells: mouse ESCs OMG-1, homozygous SNAP-Brd4 knock-in clone 9 (printed as 'OMG SNAP-Cdk9 clone 9')
Method: as §1, §2
as §3, with “OMG or NMG SNAP-Brd4” for “OMG SNAP-Cdk9”, “OMG-1 or NMG” for “OMG-1”, “μg SNAP-Brd4” for “μg SNAP-Cdk9”, “μg espCas9-gRNA-Brd4” for “μg espCas9-gRNA-Cdk9”

[3] = system: Med22 foci at the Pou5f1 locus; assay: Med22 cluster signal at Pou5f1 upon inhibition (live-cell confocal/STED scans); type: cell-based, mouse; conditions: 1 μM JQ1 or 10 μM Flavopiridol
[4] = system: Pol II (SiR-Rpb1) at the CMV mini-gene transcription site; assay: SiR-Rpb1 (Pol II) dynamics at the CMV mini-gene after inhibitor addition (target-locking); type: cell-based, human; conditions: for SiR-Rpb1 exponential decay time (ii) individual target-locked transcription site traces: 10 μM flavopiridol or 10 μM triptolide, mean±S.D.; for SiR-Rpb1 exponential decay time (i) fit parameters of total signal from different transcription sites: after adding 10 μM flavopiridol or 10 μM triptolide, target-locking
Method: To visualize Pol II, example implementations may express a SNAP-tagged Rpb1 Pol II subunit (SNAP-Rpb1). […] Importantly, the brightness and gradual SiR-Rpb1 photobleaching within these foci (see below) indicates multiple Pol II molecules accumulating at the mini-gene. Previously, it was unclear to what extent transcription is carried out by individual, solitary Pol II molecules, or whether it involves multiple Pol II molecules. When Pol II clustering occurs, as typically little information on genomic position and promoter activity is simultaneously available, it has been hard to establish whether and how this phenomenon relates to transcription. Our observations reveal that focal Pol II accumulation and transcription activity from a specific promoter at a specific genomic locus are spatially and temporally linked.
Regarding target-locking probes nanometer Pol II organization at the transcription site, motion blur and bleaching during scanning distorts the 3D images, limits the observation times and makes quantifying and tracking Pol II at the transcription site, with single-molecule sensitivity and higher spatio-temporal resolution, extremely difficult (FIGS. 11D, 11E). To eliminate scanning, example implementations may develop a target-locking system that obtains single-shot spatial information (FIG. 10A) and actively stabilizes the transcription site at the (common) excitation maximum/STED zero. With feedback loop speeds up to 30 fps, tdPCP-EGFP is locked within ˜30 nm root-mean-square (r.m.s.) from the desired set-point (FIGS. 4E, 4F, 11F). Target-locking at the excitation maximum provides the same total photon counts as scanning, but at orders-of-magnitude lower power, improving photostability. […]
Pol II closely follows the fate of nascent transcripts: SiR-Rpb1 accumulation gradually decreases after inhibitor addition (FIGS. 3B, 3C and 13H decay times 160-240 sec). […] The good agreement with decay rates measured optically further supports the notion that the accumulated SiR-Rpb1 signal reflects multiple elongating/terminating Pol IIs.
For active feedback control, example implementations may adopt a custom LabVIEW program, optimized for fast CCD acquisition (via, e.g., detection system 150), real-time image analysis and active microscope stabilization using nanopositioning equipment (e.g., platform 190). The images obtained from the Ixon3 897 detector (e.g., detection system 150) were analyzed on the fly by non-linear least-squares fitting of a 21×21 pixel ROI to a 2D Gaussian peak function implemented in LabVIEW. […] The coordinates returned by the 2D Gaussian peak fit were passed onto a PID controller that calculated the desired position correction that was commanded to the nanopositioning stage controller. […]

Structure (SMILES)	Cdk9 signal at Pou5f1 upon inhibition [1]	Hill equation n, relative Cdk9 signal vs. [JQ1] ([1]; Pou5f1)	Brd4 signal at Pou5f1 upon inhibition [2]	Hill equation n, relative Brd4 signal at Pou5f1 vs. [JQ1] ([2]; Pou5f1)	Med22 signal at Pou5f1 upon inhibition [3]	SiR-Rpb1 exponential decay time (ii) individual target-locked transcription site traces [4]	SiR-Rpb1 exponential decay time (i) fit parameters of total signal from different transcription sites [4]
Cc1sc2c(c1C)C(c1ccc(Cl)cc1)=N[C@@H](CC(=O)OC(C)(C)C)c1nnc(C)n1-2 [JQ1]	drop sharply; also recorded: drop close to noise-floor	0.8±0.1	drop sharply	1.3±0.3	drop close to noise-floor	–	–
CN1CC[C@H](c2c(O)cc(O)c3c(=O)cc(-c4ccccc4Cl)oc23)[C@H](O)C1 [flavopiridol]	not lost	–	not lost	–	not lost	162 ± 71 s	238 ± 49 s
CC(C)[C@]12O[C@H]1[C@@H]1O[C@]13[C@]1(O[C@H]1C[C@H]1C4=C(CC[C@@]13C)C(=O)OC4)[C@@H]2O [triptolide]	–	–	–	–	–	242 ± 148 s	239 ± 24 s
